Test results as given in ChEMBL document CHEMBL3102715, “Synthesis and anti-rhinovirus activity of novel 3-[2-(pyridinyl)vinyl]substituted -2H-chromenes and -4H-chromen-4-ones” (Bioorg Med Chem, 2014).
pIC50: −log10 of the molar value. Active and inactive are the calls of the source. The calls are words filed in the database; no cut-off is given here.

How the values were obtained:
rhinovirus A1B [1] = experiment: Antiviral activity against HRV 1B infected in human HeLa cells assessed as reduction in plaque number at maximum non-cytotoxic concentration after 3 days by neutral red assay; type: functional, Human rhinovirus 1B; design: scale not given: the % may be the effect or the level left
[2] = Selectivity index, ratio of CC50 for human HeLa cells to IC50 for HRV 14 infected in human HeLa cells; type: functional
rhinovirus B14 [3] = experiment: Antiviral activity against HRV 14 infected in human HeLa cells assessed as reduction in plaque number after 3 days by neutral red assay; type: functional, organism-based; conditions: Rhinovirus B, 72 h
rhinovirus A1B [4] = experiment: Antiviral activity against HRV 1B infected in human HeLa cells assessed as reduction in plaque number after 3 days by neutral red assay; type: functional, organism-based, Human rhinovirus 1B; conditions: Rhinovirus A, 72 h
[5] = Cytotoxicity against human HeLa cells assessed as reduction in cell viability after 3 days by XTT assay; type: cell-based; conditions: for MNTC at 72 h: read-out: MNCC
[6] = Selectivity index, ratio of CC50 for human HeLa cells to IC50 for HRV 1B infected in human HeLa cells; type: functional
rhinovirus B14 [7] = experiment: Antiviral activity against HRV 14 infected in human HeLa cells assessed as inhibition of viral yield compound treated at 58 uM for 1 hr prior infection followed by compound wash-out by plaque assay; type: functional; conditions: Rhinovirus B
rhinovirus A1B [8] = experiment: Antiviral activity against HRV 1B infected in human HeLa cells assessed as inhibition of viral yield compound treated at 43 uM for 1 hr prior infection followed by compound wash-out by plaque assay; type: functional, Human rhinovirus 1B; conditions: Rhinovirus A
rhinovirus B14 [9] = experiment: Antiviral activity against HRV 14 infected in human HeLa cells assessed as inhibition of viral yield compound treated at 58 uM during 1 hr at 4 degC followed by compound washout by plaque assay; type: functional; conditions: Rhinovirus B
rhinovirus A1B [10] = experiment: Antiviral activity against HRV 1B infected in human HeLa cells assessed as inhibition of viral yield compound treated at 43 uM during 1 hr at 4 degC followed by compound washout by plaque assay; type: functional, Human rhinovirus 1B; conditions: Rhinovirus A
rhinovirus B14 [11] = experiment: Antiviral activity against HRV 14 infected in human HeLa cells assessed as maximal reduction of viral yield at 58 uM treated 6 hrs post adsorption period measured after 10 hrs by plaque assay; type: functional, organism-based
rhinovirus A1B [12] = experiment: Antiviral activity against HRV 1B infected in human HeLa cells assessed as maximal reduction of viral yield at 43 uM treated 4 hrs post adsorption period measured after 10 hrs by plaque assay; type: functional, organism-based; conditions: Human rhinovirus 1B
rhinovirus B14 [13] = experiment: Antiviral activity against HRV 14 infected in human HeLa cells assessed as half-maximal reduction of viral yield at 58 uM treated 1 hr post adsorption period measured after 10 hrs by plaque assay; type: functional, organism-based
rhinovirus A1B [14] = experiment: Antiviral activity against HRV 1B infected in human HeLa cells assessed as half-maximal reduction of viral yield at 43 uM treated 45 mins post adsorption period measured after 10 hrs by plaque assay; type: functional, organism-based; conditions: Human rhinovirus 1B
rhinovirus A1B [15] = experiment: Antiviral activity against HRV 1B infected in human HeLa cells assessed as reduction of viral yield at 43 uM treated 2 hrs post infection measured after 10 hrs by plaque assay; type: functional, organism-based; conditions: Human rhinovirus 1B
rhinovirus B14 [16] = experiment: Antiviral activity against HRV 14 infected in human HeLa cells assessed as reduction of viral yield at 58 uM treated 4 hrs post infection measured after 10 hrs by plaque assay; type: functional, organism-based
rhinovirus B14 [17] = experiment: Antiviral activity against HRV 14 infected in human HeLa cells assessed as inhibition of viral yield compound treated at 58 uM prior to 1 hr incubated at 4 degC followed by 10 hrs at 33 degC infection period by plaque assay; type: functional
rhinovirus A1B [18] = experiment: Antiviral activity against HRV 1B infected in human HeLa cells assessed as inhibition of viral yield compound treated at 43 uM prior to 1 hr incubated at 4 degC followed by 10 hrs at 33 degC infection period by plaque assay; type: functional, Human rhinovirus 1B
rhinovirus B14 [19] = experiment: Antiviral activity against HRV 14 infected in human HeLa cells assessed as inhibition of viral yield at 58 uM treated at 1 hr after virus adsorption period measured after 10 hrs by plaque assay relative to control; type: functional; conditions: Rhinovirus B
rhinovirus A1B [20] = experiment: Antiviral activity against HRV 1B infected in human HeLa cells assessed as inhibition of viral yield at 43 uM treated at 1 hr after virus adsorption period measured after 10 hrs by plaque assay relative to control; type: functional, Human rhinovirus 1B; conditions: Rhinovirus A
rhinovirus B14 [21] = experiment: Antiviral activity against HRV 14 infected in human HeLa cells assessed as log reduction in infectivity at 58 uM after 10 hrs by plaque assay at 56 degC relative to control; type: functional
rhinovirus A1B [22] = experiment: Antiviral activity against HRV 1B infected in human HeLa cells assessed as log reduction in infectivity at 43 uM after 10 hrs by plaque assay at 56 degC relative to control; type: functional, Human rhinovirus 1B
rhinovirus B14 [23] = experiment: Antiviral activity against HRV 14 infected in human HeLa cells assessed as log reduction in infectivity at 58 uM after 10 hrs by plaque assay at pH 5.0 relative to control; type: functional
rhinovirus A1B [24] = experiment: Antiviral activity against HRV 1B infected in human HeLa cells assessed as log reduction in infectivity at 43 uM after 10 hrs by plaque assay at pH 5.0 relative to control; type: functional, Human rhinovirus 1B
rhinovirus A1B [25] = experiment: Antiviral activity against HRV 1B infected in human HeLa cells assessed as inhibition of viral yield at 43 uM treated during 10 hrs multiplication period by plaque assay relative to control; type: functional, Human rhinovirus 1B; conditions: Rhinovirus A
rhinovirus B14 [26] = experiment: Antiviral activity against HRV 14 infected in human HeLa cells assessed as inhibition of viral yield at 58 uM treated during 10 hrs multiplication period by plaque assay relative to control; type: functional; conditions: Rhinovirus B

| Structure (SMILES) | Ratio CC50/IC50 [2] | pIC50 (rhinovirus B14 [3]) | pIC50 (rhinovirus A1B [4]) | CC50 at 72 h [5] [µM] | MNTC at 72 h [5] [µM] | Ratio CC50/IC50 [6] | other results |
| --- | --- | --- | --- | --- | --- | --- | --- |
| O=c1c(/C=C/c2ccncc2)coc2ccccc12 | >1.08 | 4.04 | < 4.00 | > 100 | > 100 |  | Activity (rhinovirus A1B [1]): 22% |
| O=c1c(/C=C\c2cccnc2)coc2ccc(Cl)cc12 | 4.94 | 4.99 | 5.37 | 50 | 25 | 11.74 |  |
| Clc1ccc2c(c1)C=C(/C=C/c1ccncc1)CO2 | 11.17 | 5.17 | 5.32 | 75 | 50 | 15.82 |  |
| C1=C(/C=C/c2ccccn2)COc2ccccc21 | >17.06 | 5.53 | 5.77 | > 50 | > 50 | >29.41 | inhibition at 58 µM (rhinovirus B14 [7]): 1%; inhibition at 43 µM (rhinovirus A1B [8]): 24%; inhibition at 58 µM (rhinovirus B14 [9]): 16%; inhibition at 43 µM (rhinovirus A1B [10]): 14%; Activity (rhinovirus B14 [11]): Active; Activity (rhinovirus A1B [12]): Active; Activity (rhinovirus B14 [13]): Active; Activity (rhinovirus A1B [14]): Active; Activity (rhinovirus A1B [15]): inactive; Activity (rhinovirus B14 [16]): inactive; inhibition (INH) (rhinovirus B14 [17]): 90%; inhibition (INH) (rhinovirus A1B [18]): 90%; inhibition at 58 µM (rhinovirus B14 [19]): 90%; inhibition at 43 µM (rhinovirus A1B [20]): 90%; FC (rhinovirus B14 [21]): 0.9; FC (rhinovirus A1B [22]): 1.1; FC (rhinovirus B14 [23]): 0.9; FC (rhinovirus A1B [24]): 1; inhibition at 43 µM (rhinovirus A1B [25]): 90%; inhibition at 58 µM (rhinovirus B14 [26]): 90% |
| C1=C(/C=C/c2cccnc2)COc2ccccc21 | 19.33 | 5.41 | 5.34 | 75 | 25 | 16.41 |  |
| O=c1c(/C=C\c2cccnc2)coc2ccccc12 | >12.98 | 4.81 | 4.33 | > 200 | > 200 | >4.28 |  |
| O=c1c(/C=C/c2ccncc2)coc2ccc(Cl)cc12 | 9.6 | 4.81 | 4.72 | 150 | 100 | 7.87 |  |
| C1=C(/C=C\c2ccncc2)COc2ccccc21 | 17.24 | 5.54 | 6.15 | 50 | 25 | 70.42 |  |
| C1=C(/C=C\c2cccnc2)COc2ccccc21 | 4 | 5.03 | 6.01 | 37.5 | 25 | 38.26 |  |
| Clc1ccc2c(c1)C=C(/C=C/c1cccnc1)CO2 | 8.78 | 5.37 | 5.36 | 37.5 | 25 | 8.64 |  |
| O=c1c(/C=C/c2ccccn2)coc2ccc(Cl)cc12 | >9.8 | 5.29 | 5.80 | > 50 | > 50 | >31.25 |  |
| C1=C(/C=C/c2ccncc2)COc2ccccc21 | 24.75 | 5.52 | 5.71 | 75 | 50 | 38.26 |  |
| Clc1ccc2c(c1)C=C(/C=C/c1ccccn1)CO2 | >5.58 | 5.05 | 5.77 | > 50 | > 50 | >29.59 |  |
| O=c1c(/C=C/c2ccccn2)coc2ccccc12 | >28.25 | 5.15 | 5.29 | > 200 | > 200 | >38.84 |  |
